# In patent US5565462A, “Composition for topical treatment of psoriasis and atopic dermatitis comprising a xanthine derivative” (Teva Pharmaceutical Industries, Ltd., priority 1991, dated 1996):
# Entries after “also recorded” stand apart in the source; their conditions may differ.
# Key:
# [1] = system: human psoriatic fibroblasts; test: Inhibition of human psoriatic fibroblast proliferation; format: cell-based
# Experimental: PTX and PPF, alone as well as PTX in combination with other drugs were tested.
# Human psoriatic fibroblasts were obtained from skin biopsies of 5 individuals with plaque psoriasis. Cells in the 3-7th passages were used for the experiments. Human psoriatic fibroblasts (4×10^3 -6×10^3 cells) were added in 24-well plates and cultured in Dulbecco's Modified Eagle's Medium (DMEM) supplemented with 10% fetal calf serum, 2 mM L-glutamine, 100 u/ml penicillin, 100 μg/ml streptomycin (DMEM+) at 5% CO2 and 95% humidity at 37° C.
# After 3 days, medium was replaced with fresh DMEM+(control) or with medium containing various concentrations of compounds alone or in combination with pentoxifylline and incubation was continued for additional 3 days. Stock solutions (10^-1 -10^-2 M) of the compounds tested were made in ethanol. For these compounds special control (DMEM+ with 1% ethanol) was made. The compounds tested together with pentoxifylline were 3-heptanone, 3,3-dimethylbutyric acid, lipoic acid, 1,25-dihydroxyvitamin D3 betamethasone dipropionate and hydrocortisone-17-butyrate.
# On the last day of experiments, the medium was aspirated and the cells were obtained by trypsinization. The number of cells in each well was counted by the use of an hemocytometer.
# The percentage of inhibition of fibroblast proliferation was calculated according to the formula: [formula] and the results are shown in Tables 3 and 4.
# [2] = system: human psoriatic skin transplants; test: Topical treatment of human psoriatic skin transplanted to nude mice (epidermal thickness / acanthosis); format: in vivo, human skin on outbred Balb/C nude mice; conditions: for Average Improvement (decrease in epidermal thickness) / % Improvement (Decrease in Thickness): 7 days; for Average Improvement (decrease in epidermal thickness): placebo 5%
# Source text: Human psoriatic skin from psoriatic patients was transplanted to nude mice essentially according to the method of G. Kreuger et al., Prog. in Dermatol. […] The donors had stable plaque type psoriasis for at least one year preceding biopsy and had not received systemic anti-psoriatic therapy for the 4 weeks preceding biopsy. They had also not received topical therapy or U.V. therapy for the two weeks preceding biopsy. […] In this method the area (A) of the psoriasis in four main body parts (head (H), trunk (T), upper extremities (U) and lower extremities (L)) is assigned a value from 0-6 depending on the extent of psoriasis where O reflects no involvement and 6 reflects 90-100% involvement. The severity of the lesion is assessed based on three parameters: Erythema (E), Desquamation (scaling) (D) and Infiltration (I). The severity of each of these parameters is measured on a scale of 0-4 where 0 is no involvement and 4 is very sever. The total severity score is calculated according to the following formula: […]
# Split thickness biopsies of nonpustular psoriatic human tissue, 4×5 cm and 0.4 mm thick were obtained from the edge of established plaques from various donor patients. […] The grafts were allowed to heal for one week prior to topical application of the test preparations.
# Outbred Balb/C nude mice, 2 to 3 months of age were used in this study. The mice were obtained from the pathogen free animal breeding facility at the University of Tel Aviv (Israel) and were raised in the pathogen-free animal facility at the Faculty of Medicine, Technion-Israel Institute of Technology, Haifa, Israel.
# On the day following the end of treatment the severity of the psoriatic lesion was assessed and then the animals were sacrificed and the entire graft was excised and divided into two equal sections. One section was used to assess changes in the rate of proliferation by autoradiography (tritiated thymidine incorporation) while the other section was sectioned for microscopic histological assessment, including acanthosis and parakeratosis.
# In another series of experiments, human psoriatic skin of various severities was transplanted on each of 28 nude mice. The graft area was treated with various preparations as described above.
# The treatments were applied as creams and were administered as described above.
# [3] = system: human peripheral blood mononuclear cells (lymphocytes); test: Inhibition of the mitogenic (PHA) stimulation of human lymphocytes (PBMC), [3H]thymidine; format: cell-based; conditions: for inhibition at 1000 µM / inhibition at 300 µM: Homo sapiens, Lymphocyte, lymphocytes from healthy volunteers, read-out: net inhibitory effect on the mitogenic stimulation of human lymphocytes; for inhibition at 1000 µM: 1 × 10^-3 M; for inhibition at 300 µM: 3 × 10^-4 M
# Experimental: Buffy coats from the Beilinson Medical Center Blood Bank or 20 mL samples of heparinized venous blood from healthy or atopic donors were used as a source for human peripheral blood mononuclear (PBM) cells. PBM cells were separated by Ficoll-Hypaque density gradient centrifugation. […] The nonadhering cells were stirred gently and carefully collected.
# PHA (1 μg/mL), indomethacin (5 μg/mL) and various xanthine derivatives were added at initiation of culture. Indomethacin was dissolved in ethanol. […] [methyl-^3 H]Thymidine (1 μCi/well) was added at 68 h, and the cells were harvested 4 h later using an automated cell harvester (Dynatech, Alexandria, Va.). Unless otherwise stated, all cultures were performed in triplicate.
# [4] = system: psoriasis lesions; test: Clinical trial in psoriasis, 5% dyphylline cream vs placebo, PASI; format: in vivo, human patients; conditions: for % Decrease in PASI: 5% dyphylline cream, n = 33
# Experimental: Two similar plaque areas of psoriasis (i.e. both legs or forearms), were selected for treatment in each patient. In each patient one area on one side of the body was treated with 2% pentoxifylline formulated as in Example 1 and the other area on the other side of the body was treated with placebo cream formulated identically but without the pentoxifylline. The cream (formulation A in Example 1) was applied by the patient twice daily.
# The dermatological assessment was performed as follows. The dermatologist measured the area of the lesion in cm^2. The severity of each lesion was evaluated by grading erythema, scaling and thickness on a 0-4 scale where 0=none, 1=slight, 2=moderate, 3=severe and 4=exceptionally severe.
# Based on these measurements the Psoriasis Area Severity Index (PASI) was calculated for each of the 2 lesions on each patient as follows:
# PASI=Area x (Erythema+Thickness+Scaling)
# In a different series of tests 5% dyphylline cream was applied in the same vehicle that had been used to apply PTX cream. Thus the formulation used in this series of tests was the same as in Example 1 with the exception that 5% dyphylline was used in place of 2% pentoxifylline. The design of the trial was similar in all respects to the clinical trial of PTX described in Example 5 except that the number of patients was 33.
# [5] = system: peripheral blood mononuclear cells (PBMC); conditions: Ravid et al. 1990; cited from earlier work
# [6] = additional drug 10^-7 M with PTX 10^-4 M
# [7] = additional drug 10^-3 M with PTX 10^-3 M
# [8] = additional drug 10^-3 M with PTX 10^-4 M
# [9] = additional drug 10^-4 M with PTX 10^-3 M
# [10] = additional drug 10^-4 M with PTX 10^-4 M
smiles,measurement,setting,value
"C=C1/C(=C\C=C2/CCC[C@]3(C)[C@@H]([C@H](C)CCCC(C)(C)O)CC[C@@H]23)C[C@@H](O)C[C@@H]1O [1,25(OH)2 D3, 1,25-dihydroxyvitamin D3]",% Inhibition of Proliferation,[1]; [6],49.5%
CCCCCC(C)=O [2-Heptanone],% Inhibition of Proliferation,[1]; [7],45%
same,% Inhibition of Proliferation,[1]; [8],18.6%
same,% Inhibition of Proliferation,[1]; [9],26.4%
same,% Inhibition of Proliferation,[1]; [10],21.0%
same,% Inhibition of Proliferation,[1]; additional drug 10^-5 M with PTX 10^-3 M,21.3%
"CC(C)(C)CC(=O)O [3,3dimethyl butyricacid, 3,3-dimethylbutyric acid]",% Inhibition of Proliferation,[1]; [7],21%
same,% Inhibition of Proliferation,[1]; [8],36.3%
same,% Inhibition of Proliferation,[1]; [9],17.2%
same,% Inhibition of Proliferation,[1]; [10],19.3%
"CCC(=O)OCC(=O)[C@@]1(OC(=O)CC)[C@@H](C)C[C@H]2[C@@H]3CCC4=CC(=O)C=C[C@]4(C)[C@@]3(F)[C@@H](O)C[C@@]21C [Betamethasone dipropionate, betamethasone dipropionate]",% Inhibition of Proliferation,[1]; [9],77.5%
same,% Inhibition of Proliferation,[1]; [10],55.8%
same,% Inhibition of Proliferation,[1]; [6],43.1%
CCC(=O)O[C@]1(C(=O)CCl)[C@@H](C)C[C@H]2[C@@H]3CCC4=CC(=O)C=C[C@]4(C)[C@@]3(F)[C@@H](O)C[C@@]21C [Clobetasol propionate],Average Improvement (decrease in epidermal thickness),[2]; 0.05% clobetasol propionate (Dermovate),35%
same,% Improvement (Decrease in Thickness),"[2]; 0.05% clobetasol propionate, donor patient 1 (PASI 3.2)",45%
same,% Improvement (Decrease in Thickness),"[2]; 0.05% clobetasol propionate, donor patient 3 (PASI 7.6)",41%
same,% Improvement (Decrease in Thickness),"[2]; 0.05% clobetasol propionate, donor patient 4 (PASI 17.6)",55%
same,% Improvement (Decrease in Thickness),"[2]; 0.05% clobetasol propionate, donor patient 5 (PASI 31.3)",0%
same,Epidermal Thickness (Acanthosis) after 7 days treatment,"[2]; 0.05% clobetasol propionate, donor patient 1 (PASI 3.2), before treatment 44 μm",24 μm
same,Epidermal Thickness (Acanthosis) after 7 days treatment,"[2]; 0.05% clobetasol propionate, donor patient 3 (PASI 7.6), before treatment 46 μm",27 μm
same,Epidermal Thickness (Acanthosis) after 7 days treatment,"[2]; 0.05% clobetasol propionate, donor patient 4 (PASI 17.6), before treatment 54 μm",24 μm
same,Epidermal Thickness (Acanthosis) after 7 days treatment,"[2]; 0.05% clobetasol propionate, donor patient 5 (PASI 31.3), before treatment 35 μm",47 μm
Cn1c(=O)c2c(ncn2CC(O)CO)n(C)c1=O (centres unmarked) [Dyphylline],SUCCESS RATIO (decrease of at least 15% in epidermal thickness),"[2]; 8% dyphylline, 7 days topical, placebo 0/6",0/2
same,% Improvement (Decrease in Thickness),"[2]; 8% dyphylline, donor patient 1 (PASI 3.2)",0%
same,% Improvement (Decrease in Thickness),"[2]; 8% dyphylline, donor patient 5 (PASI 31.3)",0%
same,Average Improvement (decrease in epidermal thickness),[2]; 8% dyphylline,0%
same,Epidermal Thickness (Acanthosis) after 7 days treatment,"[2]; 8% dyphylline, donor patient 1 (PASI 3.2), before treatment 44 μm",65 μm
same,Epidermal Thickness (Acanthosis) after 7 days treatment,"[2]; 8% dyphylline, donor patient 5 (PASI 31.3), before treatment 35 μm",45 μm
same,effectiveness in treating psoriasis (in words),"[2]; experiment of Table 1, transplanted skin",virtually inactive
same,effectiveness in treating psoriasis (in words),"[2]; experiment of Table 2, 28 nude mice",inactive
same,inhibition at 1000 µM,[3],24%
same,inhibition at 300 µM,[3],12%
same,effectiveness of treatment of psoriasis (in words),[4]; 5% dyphylline cream vs placebo,nearly ineffective with respect to placebo; also recorded: virtually inactive in the treatment of psoriasis
same,% Decrease in PASI,"[4]; 1 week, placebo 12.4",12.6%
same,% Decrease in PASI,"[4]; 2 weeks, placebo 30.0",25.9%
same,% Decrease in PASI,"[4]; 4 weeks, placebo 21.5",28.0%
same,% Decrease in PASI,"[4]; 6 weeks, placebo 15.6",26.5%
"O=C(O)CCCCC1CCSS1 (centres unmarked) [Lipoicacid, lipoic acid]",% Inhibition of Proliferation,[1]; [9],50.2%
same,% Inhibition of Proliferation,[1]; [10],14.5%
"CCCn1cnc2c1c(=O)n(CCCCC(C)=O)c(=O)n2C [Propentofylline, 3-methyl-7-propyl-1-(5-oxohexyl)-xanthine]",inhibition at 1000 µM,"[1]; Homo sapiens, Fibroblast, compound alone, 10^-3 M, Table 4",39 ± 7%
same,inhibition at 100 µM,"[1]; Homo sapiens, Fibroblast, compound alone, 10^-4 M, Table 4",20.3 ± 6.6%
same,inhibition at 1000 µM,[3],89%
same,inhibition at 300 µM,[3],88%
same,inhibition of the mitogenic stimulation compared with the other xanthine derivatives (in words),"[3]; vs theophylline and diphylline, healthy volunteers",inhibited the mitogenic stimulation to a far greater effect than the other xanthine derivatives
Cn1c(=O)c2[nH]cnc2n(C)c1=O [Theophylline],inhibition at 1000 µM,[3],59%
same,inhibition at 300 µM,[3],37%
C[C@@H]1C[C@H]2[C@@H]3CCC4=CC(=O)C=C[C@]4(C)[C@@]3(F)[C@@H](O)C[C@]2(C)[C@@]1(O)C(=O)CO [dexamethasone],inhibition of mitogenic stimulation of PBMC (in words),[5],inhibited the mitogenic stimulation of PBMC
